Consider 35 compounds from PubChem BioAssay AID463204 (Broad Institute, 2010).

The source made the active and inactive calls.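 How the source made its calls: active means AC50 no more than ten times the top concentration tested, that is within one log above it; inconclusive means flat curve fit with activity between 30% and 70%, or invalid poor fit; inactive means AC50 beyond ten times the top tested dose.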 A value given as a limit tells only on which side of the number the result lay.

The test concerns S. cerevisiae Mot1-301 ts growth rescue, BacTiter-Glo ATP luminescence. Description: growth rescue of Mot1-301 ts yeast, confirmation, SUMOylation pathway inhibitor project, whole organism, S. cerevisiae, Mot1-301 ts mutant, luminescence, dose retest (AID 463204).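 Further: growth at restrictive 38.5 degrees C of Mot1-301 OY566 strain; actives raise luminescence by restoring growth of the ts mutant at high temperature.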
By AC50 is commonly meant the concentration giving half of the maximal activity seen. On to `CC(C)NC(=O)CCCc1cn(C)c2ccccc12`, for which the AC50 is > 42 µM (inactive).

For `CC1CCCC(N2C(=O)NC(NC(=O)c3ccco3)(C(F)(F)F)C2=O)C1C` (stereo not given), the AC50 was > 42 µM (inactive).

`O=C(CC(c1ccccc1)c1ccccc1O)NCCN1CCOCC1` (stereo not given): the AC50 is > 42 µM (inactive). As for `COC(=O)C1CN(C(=O)C(C)Oc2ccc(F)cc2)c2ccccc2O1` (stereo not given), the AC50 was > 42 µM (inactive). To `COc1cc([C@@H]2CC=C(C(=O)O)[C@H](c3ccccc3F)N2S(=O)(=O)c2ccc(C)cc2)cc(OC)c1OC` belongs > 42 µM (inactive); to `O=C(COc1ccc(-n2cnnn2)cc1)NCCc1ccc(F)cc1`, > 42 µM (inactive); to `O=C(c1cn(-c2ccccc2)nc1-c1cccs1)N1CCOCC1`, > 42 µM (inactive).

Take `Cc1noc(C)c1Cc1ccc(O)cc1`: the AC50 was > 42 µM (inactive). Take `Nc1nc(-c2ccc(Cl)cc2)nc(-c2ccc(Cl)cc2)n1`: the AC50 is > 42 µM (inactive). As to `Cc1ccc(C(=O)N/C(=C\c2cccs2)C(=O)NCCc2c[nH]c3ccccc23)cc1`, the AC50 is > 42 µM (inactive).

As for `COc1ccc2[nH]c(C(=O)N/N=C/c3ccccc3OC)cc2c1`, the AC50 was > 42 µM (inactive). Regarding `Nc1cc[n+](CC(=O)Nc2ccccc2)cc1`, the AC50 was > 42 µM (inactive).

Regarding `COCCn1c(SCc2ccc(Cl)cc2)nc2c1c(=O)[nH]c(=O)n2C`, the AC50 is > 42 µM (inactive). Consider `NN1C(=O)NC(c2ccccc2)(c2ccccc2)C1=O`, for which the AC50 was > 42 µM (inactive). To `COc1ccc(OC)c2c(N)c(C#N)c(C(F)(F)C(F)(F)F)nc12` belongs > 42 µM (inactive); to `Nc1nc2ccccc2cc1-c1cccs1`, > 42 µM (inactive); to `CCN1CSC(=S)N(Cc2ccc(OC)cc2)C1`, 4.01 µM. Consider `NNc1nc2sc3c(c2c(=O)n1-c1ccccc1)CCCC3`, for which the AC50 is > 42 µM (inactive).

On to `COc1ccc(Nc2cc(NCCCO)c([N+](=O)[O-])c3nonc23)cc1`, for which the AC50 is > 42 µM (inactive). Take `CCN(CC)C1CCN(C(=O)c2cc(COc3ccc(-n4cncn4)cc3)on2)C1` (stereo not given): the AC50 was > 42 µM (inactive). Consider `O=C(c1cnn2c(C(F)(F)F)cc(-c3ccco3)nc12)N1CCCc2ccccc21`, for which the AC50 is > 42 µM (inactive). For the compound `Cc1ccc(NC(=O)C(CC(C)C)NC(=O)C2CCC(C)CC2)nc1` (stereo not given), the AC50 is > 42 µM (inactive). For `CC(C)(c1ccccc1)c1ccc(OCCN2CCOCC2)cc1`, the AC50 is > 42 µM (inactive). As to `CCn1cc(C(=O)NCc2ccccn2)c(=O)c2cc(F)c(N3CCN(C)CC3)cc21`, the AC50 was > 42 µM (inactive). With `Cc1ccc2nc(/C(C#N)=C\c3cc(O)ccc3[N+](=O)[O-])[nH]c2c1`, the AC50 is > 42 µM (inactive). As to `Cc1ccc(NC(=O)Nc2cccc(C(F)(F)F)c2)nc1`, the AC50 is > 42 µM (inactive). With `CCNc1nc(NCC)nc(SCCOC(=O)Nc2ccccc2)n1`, the AC50 is > 42 µM (inactive). With `CC(=O)c1cccc(N2C(=NC(=O)C3CCCCC3)SC3CS(=O)(=O)CC32)c1` (stereo not given), the AC50 was > 42 µM (inactive). As to `N#Cc1c(Cn2cncn2)nc(=O)n(-c2ccc(Cl)cc2)c1N`, the AC50 was > 42 µM (inactive). As for `COc1ccc2c(c1)[C@H]1[C@H](CO2)[C@H](c2ccccc2)[C@]2(C)C(=O)Nc3cc(F)ccc3C(=O)N12`, the concentration at half-maximal activity (AC50) was 7.87 µM. As for `O=C(O)c1cc(Oc2ccc(C(F)(F)F)cc2Cl)ccc1[N+](=O)[O-]`, the AC50 was > 42 µM (inactive). `CC1(C)CC(=O)C2=C(C1)Oc1ncn(CCO)c(=N)c1C2c1ccccc1` (stereo not given): the AC50 was > 42 µM (inactive). `CC[C@H]1CCCCc2ccccc2[C@@H](C(=O)C[C@@H](O)CC(C)=O)OC1=O`: the concentration at half-maximal activity (AC50) is 14.2 µM. Turning to `COc1ccccc1NC(=O)Nc1ccc(Cl)c(S(=O)(=O)Nc2ccccc2OC)c1`, the AC50 was > 42 µM (inactive). `O=C(CSc1nnc2ccccn12)NNC(=O)c1ccc(Cl)cc1`: the AC50 is > 42 µM (inactive).
